PubChem BioAssay AID1607 (NINDS Approved Drug Screening Program, 2009)
Results filed as inconclusive are left out.

The compounds below were run on cells expressing AR112-GFP, GFP fluorescence (assay: enhancers of polyQ-expanded androgen receptor AR112-GFP degradation, cell-based, GFP fluorescence (AID 1607)).

SMILES	EC50 [µM]
CC(CN(C)C)CN1c2ccccc2Sc2ccccc21 (stereo not given)	3.75
CNCCCN1c2ccccc2CCc2ccccc21	3.12
Fc1ccc(C(c2ccc(F)cc2)N2CCN(C/C=C/c3ccccc3)CC2)cc1	3.75
CN(C)C(=O)C(CCN1CCC(O)(c2ccc(Cl)cc2)CC1)(c1ccccc1)c1ccccc1	3.75
O=c1cc(-c2ccccc2)oc2c(O)c(O)ccc12	2.5
Clc1ccc(C(OCCN2CCCCC2)c2ccccc2)cc1 (stereo not given)	3.75
NCCc1cc(O)c(O)cc1O	3.12
CN1CCN(CCC=C2c3ccccc3Sc3ccc(S(=O)(=O)N(C)C)cc32)CC1	3.12
COC(=O)[C@H]1[C@H]2C[C@@H]3c4[nH]c5cc(OC)ccc5c4CCN3C[C@H]2C[C@@H](OC(=O)c2cc(OC)c(OC)c(OC)c2)[C@@H]1OC	3.75
CN1CCC[C@@H]1CCO[C@](C)(c1ccccc1)c1ccc(Cl)cc1	3.12
CCC(C)[C@H]1O[C@]2(C=C[C@@H]1C)C[C@@H]1C[C@@H](C/C=C(\C)[C@@H](OC3C[C@H](OC)C(O[C@H]4C[C@H](OC)[C@@H](O)[C@H](C)O4)[C@H](C)O3)[C@@H](C)/C=C/C=C3\CO[C@@H]4[C@H](O)C(C)=C[C@@H](C(=O)O1)[C@]34O)O2 (stereo not given in full)	3.75
CN(C)CCC=C1c2ccccc2C=Cc2ccccc21	3.12
CCc1nc(N)nc(N)c1-c1ccc(Cl)cc1	3.75
CC(CN(C)C)CN1c2ccccc2CCc2ccccc21 (stereo not given)	3.75
COc1ccc2cc3[n+](cc2c1OC)CCc1cc2c(cc1-3)OCO2	3.12
